Test results reported in patent US4851338A, “Method for diagnosing the presence of bacteria” (Biocarb AB, priority 1982, dated 1989).

B1: Fetuin: Fetuin (protein, UniProt P12763 19-359, looked up)
Alpha-2-HS-glycoprotein: IPLDPVAGYKEPACDDPDTEQAALAAVDYINKHLPRGYKHTLNQIDSVKVWPRRPTGEVYDIEIDTLETTCHVLDPTPLANCSVRQQTQHAVEGDCDIHVLKQDGQFSVLFTKCDSSPDSAEDVRKLCPDCPLLAPLNDSRVVHAVEVALATFNAESNGSYLQLVEISRAQFVPLPVSVSVEFAVAATDCIAKEVVDPTKCNLLAEKQYGFCKGSVIQKALGGEDVRVTCTLFQTQPVIPQPQPDGAEAEAPSAVPDAAGPTPSAAGPPVASVVVGPSVVAVPLPLHRAHYDLRHTFSGVASVESSSGEAFHVGKTPIVGQPSIPGGPVRLCPGRIRYFKI

tested on: haemagglutination between sheep erythrocytes and S. saprophyticus bacteria (Mc 2 and Mc 194); experiment: Inhibition of haemagglutination of sheep erythrocytes with Staphylococcus saprophyticus; type: cell-based; conditions: Inhibition of haemagglutination, S. saprophyticus Mc 2 and Mc 194, 2 HU bacteria
Protocol: In the tests the bacteria S. saprophyticus strains, both isolated from urine from patents having urinary tract infection, were used. The bacteria were cultivated in tryptone broth over night, pelletized by means of centrifugation and washed twice with PBS, pH 7.2. Haemagglutination was performed using erythrocytes from sheep obtained from sheep blood and washed twice with 0.85 % saline.
In the haemagglutination-indication experiments microtitre plates (Limbo Sc. Comp. Inc) were used. 25 μl of bacterial suspension were titrated in PBS by two-step titre steps, 25 μl of 1% erythrocyte suspension being then added. The haemagglutination titre was determined after incubation of the plates for 2-4 hours in room temperature.
In the inhibition experiments serial dilutions of the relevant inhibitor (50 μl/well) and 25 μl of bacterial suspension diluted to contain 2 HU haemagglutinating units of bacteria were used. The plates were incubated for 30 minutes at 37° C., 25 μl of the erythrocyte suspension being then added to each well.

Molecule | Minimum inhibitory con. [µg/mL]
Asialotransferrin (human): Asialotransferrin (human) | 250
Transferrin (human): Transferrin (human) | > 2500
B1 | > 2500

same assay, conditions: Staphylococcus saprophyticus, Erythrocyte, read-out: Minimum inhibitory con.

Molecule | minimal effective concentration [µg/mL]
OC[C@H]1O[C@H](O[C@H]2[C@@H](O)[C@@H](CO)OC(O)[C@@H]2O)[C@H](O)[C@@H](O)[C@H]1O (stereo partly drawn) [α-Galp-(1-3)-Gal] | > 2500
OC[C@H]1O[C@H](O[C@@H]2[C@H](O)[C@@H](O)C(O)O[C@@H]2CO)[C@H](O)[C@@H](O)[C@H]1O (stereo partly drawn) [α-Galp-(1-4)-Gal] | > 2500
OC[C@H]1O[C@H](O[C@@H]2[C@H](O)[C@@H](O)[C@H](O[C@H]3[C@H](O)[C@@H](O)C(O)O[C@@H]3CO)O[C@@H]2CO)[C@H](O)[C@@H](O)[C@H]1O (stereo partly drawn) [α-Galp-(1-4)-β-Galp-(1-4)-Glc] | > 2500
CC(=O)N[C@H]1[C@H](O[C@H]2[C@@H](O)[C@@H](CO)O[C@H](O[C@@H]3[C@H](O)[C@@H](O)[C@H](O[C@H]4[C@H](O)[C@@H](O)C(O)O[C@@H]4CO)O[C@@H]3CO)[C@@H]2O)O[C@H](CO)[C@H](O)[C@@H]1O (stereo partly drawn) [β-GalNAcp-(1-3)-α-Galp-(1-4)-β-Galp-(1-4)-Glc] | > 2500
OC[C@H]1O[C@@H](O[C@H]2[C@@H](O)[C@@H](CO)OC(O)[C@@H]2O)[C@H](O)[C@@H](O)[C@H]1O (stereo partly drawn) [β-Galp-(1-3)-Gal] | > 2500
CC(=O)N[C@H]1[C@H](O[C@H]2[C@@H](O)[C@@H](CO)O[C@@H](O[C@H]3[C@H](O)[C@@H](O)C(O)O[C@@H]3CO)[C@@H]2O)O[C@H](CO)[C@@H](O)[C@@H]1O[C@@H]1O[C@H](CO)[C@H](O)[C@H](O)[C@H]1O (stereo partly drawn) [β-Galp-(1-3)-β-GNAcp-(1-3)-β-Galp-(1-4)-Glc] | > 2500
OC[C@H]1O[C@@H](O[C@H]2[C@@H](O)[C@@H](CO)O[C@@H](O[C@H]3[C@@H](O)[C@@H](CO)OC(O)[C@@H]3O)[C@@H]2O)[C@H](O)[C@@H](O)[C@H]1O (stereo partly drawn) [β-Galp-(1-3)-β-Galp-(1-3)-Gal] | > 2500
CC(=O)N[C@H]1[C@H](O[C@H]2[C@@H](O)[C@@H](CO)O[C@@H](O[C@H]3[C@H](O)[C@@H](O)C(O)O[C@@H]3CO)[C@@H]2O)O[C@H](CO)[C@@H](O[C@@H]2O[C@H](CO)[C@H](O)[C@H](O)[C@H]2O)[C@@H]1O (stereo partly drawn) [β-Galp-(1-4)-β-GNAcp-(1-3)-β-Galp-(1-4)-Glc] | 250
OC[C@H]1O[C@@H](OC[C@H]2OC(O)[C@H](O)[C@@H](O)[C@H]2O)[C@H](O)[C@@H](O)[C@H]1O (stereo partly drawn) [β-Galp-(1-6)-Gal] | > 2500
